Experimental data taken from US10604484B2, “Indolone compounds and their use as AMPA receptor modulators” (Janssen Pharmaceutica NV, priority 2015, dated 2020).

Target: T1, GluA1o-γ8 (Homo sapiens, UniProt P42261+Q8WXS5)
T1 construct: expressed in transfected cells
Assay: Calcium flux assay (FLIPR), inhibition of glutamate response of GluA1o-γ8 channel in HEK293 cells
Assay type: cell-based
Conditions: HEK293 cells stably expressing GRIA1o-CACNG8 fusion; 15 μM glutamate; pIC50 = negative log of the IC50 in molar
Source text: This assay was used to test compounds for their ability to inhibit TARP γ8 dependent AMPA receptor activity. The AMPA receptor is a non-selective cation channel activated by glutamate. Ionotropic glutamate receptors normally desensitize too rapidly to allow detectable calcium influx in a FLIPR assay (Strange et al. (2006). “Functional characterisation of homomeric ionotropic glutamate receptors GluR1-GluR6 in a fluorescence-based high throughput screening assay.” Comb Chem High Throughput Screen 9(2): 147-158). But, this desensitization is incomplete, and a substantial steady-state current remains in the sustained presence of glutamate (Cho et al. (2007). “Two families of TARP isoforms that have distinct effects on the kinetic properties of AMPA receptors and synaptic currents.” Neuron 55(6): 890-904).
An in vitro assay was used to determine the potency of test compounds as inhibitors of the glutamate response of the channel formed by GluA1o-γ8. To ensure a 1:1 stoichiometry of GluA1o and γ8 subunits in the expressed channel, a fusion of the cDNAs for GRIA1o and CACNG8 was used. Following Shi et al (2009) “The stoichiometry of AMPA receptors and TARPs varies by neuronal cell type.” Neuron 62(5): 633-640), the C-terminus of the cDNA for GRIA1o was fused to the N-terminus of the cDNA for γ8. The linker sequence was QQQQQQQQQQEFAT. Channels expressed with this construct appear to have similar properties to channels formed by co-expression of GRIA1o with an excess of CACNG8 (Shi et al. 2009). A clonal cell line in HEK293 cells stably expressing this construct, with a geneticin selection marker, was generated for use in this assay. Cell expressing the GRIA1o-CACNG8 fusion construct were grown in a monolayer in 96- or 384-well microtiter plates. They were washed with assay buffer (135 mM NaCl, 4 mM KCl, 3 mM CaCl2, 1 mM MgCl2, 5 mM glucose, 10 mM HEPES, pH 7.4, 300 mOs) using a Biotek EL405 plate washer. The cells were then loaded with a calcium-sensitive dye (Calcium-5 or Calcium-6, Molecular Devices) and the test compounds at a range of concentrations. Calcium flux following the addition of 15 μM glutamate was monitored using a Molecular Devices FLIPR Tetra.
The fluorescence in each well was normalized to the fluorescence of negative and positive control wells. The negative control wells had no added compounds, and the positive control wells had been incubated with 10 μM CP465022 (a non-subtype-selective AMPA receptor antagonist) (Lazzaro et al. (2002). “Functional characterization of CP-465,022, a selective, noncompetitive AMPA receptor antagonist.” Neuropharmacology 42(2): 143-153). The responses to glutamate as functions of the test compound concentrations were fitted to a four-parameter logistic function. The fitted parameter corresponding to the midpoint was taken to be the potency of inhibition of the compound. The data in Table 4 below illustrates the observed potentcy for the compounds described herein. pIC50 refers to the negative log of the IC50 in molar.

T1 sequence (P42261+Q8WXS5 fused): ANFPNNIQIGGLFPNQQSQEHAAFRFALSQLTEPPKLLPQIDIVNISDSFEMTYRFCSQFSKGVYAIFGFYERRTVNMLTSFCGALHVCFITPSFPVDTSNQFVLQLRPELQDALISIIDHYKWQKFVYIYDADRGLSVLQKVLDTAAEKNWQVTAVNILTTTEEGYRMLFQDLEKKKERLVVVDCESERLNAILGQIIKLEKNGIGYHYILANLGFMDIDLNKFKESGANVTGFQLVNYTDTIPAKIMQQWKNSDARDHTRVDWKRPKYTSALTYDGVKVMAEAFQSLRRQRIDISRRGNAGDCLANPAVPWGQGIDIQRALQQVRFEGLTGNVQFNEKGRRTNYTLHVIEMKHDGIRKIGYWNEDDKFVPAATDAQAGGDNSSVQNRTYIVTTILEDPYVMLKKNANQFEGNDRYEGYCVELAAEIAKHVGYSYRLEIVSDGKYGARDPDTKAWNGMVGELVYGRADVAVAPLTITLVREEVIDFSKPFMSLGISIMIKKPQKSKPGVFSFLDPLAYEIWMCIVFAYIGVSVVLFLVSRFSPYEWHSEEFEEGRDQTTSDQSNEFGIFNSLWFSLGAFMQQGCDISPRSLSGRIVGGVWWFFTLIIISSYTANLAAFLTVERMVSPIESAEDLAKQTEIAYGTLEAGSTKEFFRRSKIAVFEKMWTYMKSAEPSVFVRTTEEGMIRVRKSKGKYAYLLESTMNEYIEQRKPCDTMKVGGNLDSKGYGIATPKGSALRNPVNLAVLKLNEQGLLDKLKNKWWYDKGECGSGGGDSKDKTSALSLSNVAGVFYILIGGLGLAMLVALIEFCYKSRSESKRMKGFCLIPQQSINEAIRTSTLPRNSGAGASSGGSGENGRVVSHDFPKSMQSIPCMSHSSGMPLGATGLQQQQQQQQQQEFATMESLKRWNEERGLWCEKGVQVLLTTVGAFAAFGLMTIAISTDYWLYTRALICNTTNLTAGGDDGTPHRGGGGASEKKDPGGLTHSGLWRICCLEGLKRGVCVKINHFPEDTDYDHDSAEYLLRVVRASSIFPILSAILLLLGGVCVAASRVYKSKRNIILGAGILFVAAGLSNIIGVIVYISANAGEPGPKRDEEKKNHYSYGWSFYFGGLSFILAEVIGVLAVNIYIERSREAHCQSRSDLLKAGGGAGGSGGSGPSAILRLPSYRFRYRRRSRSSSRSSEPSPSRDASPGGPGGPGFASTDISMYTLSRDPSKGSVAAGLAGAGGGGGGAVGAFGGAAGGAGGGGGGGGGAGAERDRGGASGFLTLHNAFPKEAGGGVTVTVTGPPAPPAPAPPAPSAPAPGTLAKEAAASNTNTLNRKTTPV

| SMILES | GluR1-γ8 pIC50 |
| --- | --- |
| Cc1cc(-c2c(Cl)cncc2OC(F)F)cc2c1NC(=O)C2 [Example 146, 5-(3-Chloro-5-(difluoromethoxy)pyridin-4-yl)-7-methylindolin-2-one] | 8.1 |

Same assay, conditions: HEK293 cells stably expressing GRIA1o-CACNG8 fusion; 15 μM glutamate; pIC50 = negative log of the IC50 in molar; read-out: GluR1-γ8 pIC50 (converted)

| IC50 | SMILES |
| --- | --- |
| 100 nM | Cc1cc(-c2cccc(C#N)c2C)cc2c1NC(=O)C2 [Example 134, 2-Methyl-3-(7-methyl-2-oxo-indolin-5-yl)benzonitrile] |
| 0.316 nM | Cc1cccc(C(F)(F)F)c1-c1cc(Cl)c2c(c1)CC(=O)N2 [Example 167, 7-Chloro-5-[2-methyl-6-(trifluoromethyl)phenyl]indolin-2-one] |
| 5.01 nM | CCc1cc(-c2c(Cl)cncc2Cl)cc2c1NC(=O)C2 [Example 174, 5-(3,5-Dichloro-4-pyridyl)-7-ethyl-indolin-2-one] |
| 0.2 nM | CCc1cc(-c2c(C)cccc2C(F)(F)F)cc2c1NC(=O)C2 [Example 172, 7-Ethyl-5-[2-methyl-6-(trifluoromethyl)phenyl]indolin-2-one] |
| 0.398 nM | Cc1cc(-c2c(C)cccc2Cl)cc2c1NC(=O)C2 [Example 135, 5-(2-Chloro-6-methyl-phenyl)-7-methyl-indolin-2-one] |
| 0.794 nM | COc1cc(-c2c(Cl)cccc2OC(F)(F)F)cc2c1NC(=O)C2 [Example 178, 5-[2-Chloro-6-(trifluoromethoxy)phenyl]-7-methoxy-indolin-2-one] |
| 12.6 nM | COc1cccc(OC(F)F)c1-c1cc(C)c2c(c1)CC(=O)N2 [Example 130, 5-[2-(Difluoromethoxy)-6-methoxy-phenyl]-7-methyl-indolin-2-one] |
| > 10000 nM | COC1CCN(c2cccc(-c3cc(F)c4c(c3)CC(=O)N4)c2Cl)CC1 [Example 121, 5-(2-Chloro-3-(4-methoxypiperidin-1-yl)phenyl)-7-fluoroindolin-2-one] |
| 1.58 nM | CCc1cc(-c2c(C)cccc2F)cc2c1NC(=O)C2 [Example 171, 7-Ethyl-5-(2-fluoro-6-methyl-phenyl)indolin-2-one] |
| 2 nM | Cc1cc(-c2c(F)cccc2Cl)cc2c1NC(=O)C2 [Example 141, 5-(2-Chloro-6-fluoro-phenyl)-7-methyl-indolin-2-one] |
| 0.158 nM | CC(C)(C#N)c1cccc(Cl)c1-c1cc(Cl)c2c(c1)CC(=O)N2 [Example 155, 2-[3-Chloro-2-(7-chloro-2-oxo-indolin-5-yl)phenyl]-2-methyl-propanenitrile] |
| 31.6 nM | O=C1Cc2cc(-c3c(Cl)cccc3Cl)ccc2N1 [Example 4, 5-(2,6-Dichlorophenyl)indolin-2-one] |
| 2.51 nM | Cc1cc(-c2c(C)cccc2C#N)cc2c1NC(=O)C2 [Example 138, 3-Methyl-2-(7-methyl-2-oxo-indolin-5-yl)benzonitrile] |
| 0.631 nM | N#Cc1cc(-c2c(Cl)cccc2OC(F)(F)F)cc2c1NC(=O)C2 [Example 175, 5-[2-Chloro-6-(trifluoromethoxy)phenyl]-2-oxo-indoline-7-carbonitrile] |
| 316 nM | Cc1cc(-c2c(F)cccc2F)cc2c1NC(=O)C2 [Example 140, 5-(2,6-Difluorophenyl)-7-methyl-indolin-2-one] |
| 2.51 nM | Cc1cc(-c2c(C)cccc2C)cc2c1NC(=O)C2 [Example 142, 5-(2,6-Dimethylphenyl)-7-methyl-indolin-2-one] |
| 31.6 nM | N#CCc1cccc(Cl)c1-c1ccc2c(c1)CC(=O)N2 [Example 6, 2-[3-Chloro-2-(2-oxoindolin-5-yl)phenyl]acetonitrile] |
| 158 nM | Cc1ccnc(C)c1-c1cc(Cl)c2c(c1)CC(=O)N2 [Example 161, 7-Chloro-5-(2,4-dimethyl-3-pyridyl)indolin-2-one] |
| 7.94 nM | COc1nccc(C)c1-c1cc(Cl)c2c(c1)CC(=O)N2 [Example 162, 7-Chloro-5-(2-methoxy-4-methyl-3-pyridyl)indolin-2-one] |
| 0.0794 nM | N#Cc1ccc(Cl)c(-c2cc(Cl)c3c(c2)CC(=O)N3)c1OC(F)(F)F [Example 156, 4-Chloro-3-(7-chloro-2-oxo-indolin-5-yl)-2-(trifluoromethoxy)benzonitrile] |
| 25.1 nM | CC(C)(C#N)c1cccc(Cl)c1-c1cc(F)c2c(c1)CC(=O)N2 [Example 119, 2-(3-Chloro-2-(7-fluoro-2-oxoindolin-5-yl)phenyl)-2-methylpropanenitrile] |
| 0.501 nM | O=C1Cc2cc(-c3c(Cl)cccc3OC(F)(F)F)cc(C(F)(F)F)c2N1 [Example 176, 5-[2-Chloro-6-(trifluoromethoxy)phenyl]-7-(trifluoromethyl)indolin-2-one] |
| 1.26 nM | Cc1cc(-c2c(C)cccc2C(F)(F)F)cc2c1NC(=O)C2 [Example 137, 7-Methyl-5-[2-methyl-6-(trifluoromethyl)phenyl]indolin-2-one] |
| 126 nM | COc1cccc(F)c1-c1cc(C)c2c(c1)CC(=O)N2 [Example 139, 5-(2-Fluoro-6-methoxy-phenyl)-7-methyl-indolin-2-one] |
| 0.126 nM | Cc1cc(-c2c(Cl)ccc(C#N)c2OC(F)(F)F)cc2c1NC(=O)C2 [Example 133, 4-Chloro-3-(7-methyl-2-oxoindolin-5-yl)-2-(trifluoromethoxy)benzonitrile] |
| > 10000 nM | COc1cccc(OC(F)F)c1-c1cc(F)c2c(c1)CC(=O)N2 [Example 123, 5-[2-(Difluoromethoxy)-6-methoxy-phenyl]-7-fluoro-indolin-2-one] |
| 6.31 nM | Cc1ccnc(Cl)c1-c1cc(Cl)c2c(c1)CC(=O)N2 [Example 160, 7-Chloro-5-(2-chloro-4-methyl-3-pyridyl)indolin-2-one] |
| 7.94 nM | O=C1Cc2cc(-c3c(Cl)cncc3Cl)cc(Cl)c2N1 [Example 159, 7-Chloro-5-(3,5-dichloro-4-pyridyl)indolin-2-one] |
